# Tests used:
# HBV [1] = test: Anti-HBV activity, HepG2.2.15 stable transfected cell line, HBV DNA from secreted virions by realtime PCR; type: cell-based; details: Hepatitis B virus, HepG2.2.15, 144 h, HepG2.2.15 cells, 6 days of treatment, HBV DNA from secreted virions; read-out: HepG2 2.15 EC50
# HBV [2] = test: Anti-HBV activity, HepG2.117 inducibly HBV producing cell line (Tet-off), intracellular HBV DNA by realtime PCR; type: cell-based; details: Hepatitis B virus, HepG2.117, 72 h, HepG2.117 cells, 3 days of treatment, intracellular HBV DNA; read-out: HepG2 117 EC50
# [3] = Cytotoxicity in HepG2 cells, Resazurin viability assay; details: human, HepG2 cells, HepG2 4 days CC50 (μM), incubated for 4 days, Resazurin assay
SMILES,EC50 (HBV [1]),EC50 (HBV [2]),CC50 at 4 days [3]
"Cn1cc(S(=O)(=O)NC(C)(C)C)c(F)c1C(=O)Nc1ccc(F)c(C#N)c1 [Compound 214, 4-(tert-Butylsulfamoyl)-N-(3-cyano-4-fluorophenyl)-3-fluoro-1-methyl-1H-pyrrole-2-carboxamide]",60 nM,20 nM,> 25 µM
"COCc1c(S(=O)(=O)N[C@H](C)C(F)(F)F)c(F)c(C(=O)Nc2ccc(F)c(C#N)c2)n1C [Compound 309, N-(3-cyano-4-fluoro-phenyl)-3-fluoro-5-(methoxymethyl)-1-methyl-4-[[(1R)-2,2,2-trifluoro-1-methyl-ethyl]sulfamoyl]pyrrole-2-carboxamide]",530 nM,320 nM,> 25 µM
"Cn1cc(S(=O)(=O)NC2(C(F)(F)F)CCC2)c(Cl)c1C(=O)Nc1ccc(F)c(F)c1 [Compound 267, 3-chloro-N-(3,4-difluorophenyl)-1-methyl-4-{[1-(trifluoromethyl)-cyclobutyl]sulfamoyl}-1H-pyrrole-2-carboxamide]",6 nM,9 nM,> 25 µM
"CCC(C)(NS(=O)(=O)c1cc(C(=O)Nc2cc(F)c(F)c(Cl)c2)n(C)c1)C(F)(F)F (single isomer, unassigned) [Compound 165a, N-(3-chloro-4,5-difluoro-phenyl)-1-methyl-4-[[1-methyl-1-(trifluoro-methyl)propyl]sulfamoyl]pyrrole-2-carboxamide]",150 nM,40 nM,9.3 µM
"C[C@@H](NS(=O)(=O)c1cn(C)c(C(=O)Nc2cccc(Br)c2)c1F)C(F)(F)F [Compound 280, N-(3-bromophenyl)-3-fluoro-1-methyl-4-[[(1R)-2,2,2-trifluoro-1-methyl-ethyl]sulfamoyl]pyrrole-2-carboxamide]",5 nM,60 nM,> 25 µM
"Cn1cc(S(=O)(=O)NC(C)(C)C(F)(F)F)cc1C(=O)Nc1cc(Cl)c(F)c(Cl)c1 [Compound 163, N-(3,5-Dichloro-4-fluorophenyl)-1-methyl-4-[(2,2,2-trifluoro-1,1-dimethylethyl)sulfamoyl]-1H-pyrrole-2-carboxamide]",180 nM,110 nM,14.3 µM
"CC[C@H](NS(=O)(=O)c1cc(C(=O)Nc2ccc(F)c(Cl)c2F)n(C)c1)C(F)(F)F [Compound 262, N-(3-chloro-2,4-difluoro-phenyl)-1-methyl-4-{[(1S)-1-(trifluoro-methyl)propyl]sulfamoyl}-1H-pyrrole-2-carboxamide]",20 nM,20 nM,> 25 µM
"Cc1cc(NC(=O)c2cc(S(=O)(=O)NC3(CO)COC3)cn2C)ccc1F [Compound 10, N-(4-fluoro-3-methyl-phenyl)-4-[[3-(hydroxymethyl)oxetan-3-yl]sulfamoyl]-1-methyl-pyrrole-2-carboxamide]",110 nM,80 nM,> 25 µM
"C[C@@H](NS(=O)(=O)c1cn(C)c(C(=O)Nc2ccc(F)c(Cl)c2)c1Cl)C(F)(F)F [Compound 222, 3-Chloro-N-(3-chloro-4-fluorophenyl)-1-methyl-4-{[(1R)-2,2,2-trifluoro-1-methylethyl]sulfamoyl}-1H-pyrrole-2-carboxamide]",4 nM,9 nM,> 25 µM
"Cc1cc(NC(=O)c2cc(S(=O)(=O)NC3(CO)CC3)cn2C)ccc1F [Compound 12, N-(4-fluoro-3-methyl-phenyl)-4-[[1-(hydroxymethyl)cyclopropyl]sulfamoyl]-1-methyl-pyrrole-2-carboxamide]",120 nM,60 nM,> 25 µM
"Cc1cc(NC(=O)c2cc(S(=O)(=O)NC3(C)COC3)cn2C)ccc1F [Compound 5, N-(4-fluoro-3-methyl-phenyl)-1-methyl-4-[(3-methyloxetan-3-yl)-sulfamoyl]pyrrole-2-carboxamide]",30 nM,20 nM,> 25 µM
"CC(NS(=O)(=O)c1cc(C(=O)Nc2ccc(F)c(C#N)c2)n(C)c1)C(F)F (single isomer, unassigned) [Compound 200a, N-(3-Cyano-4-fluorophenyl)-4-{[2,2-difluoro-1-methylethyl]sulfamoyl}-1-methyl-1H-pyrrole-2-carboxamide]",100 nM,50 nM,> 25 µM
"Cn1cc(S(=O)(=O)NC2(C(F)(F)F)CCC2)cc1C(=O)Nc1cc(F)c(F)c(Cl)c1 [Compound 189, N-(3-Chloro-4,5-difluorophenyl)-1-methyl-4-{[1-(trifluoromethyl)-cyclobutyl]sulfamoyl}-1H-pyrrole-2-carboxamide]",7 nM,7 nM,11.3 µM
"C[C@@H](NS(=O)(=O)c1cc(C(=O)Nc2ccc(F)c(C#N)c2)n(C)c1)C(C)(F)F [Compound 298, N-(3-cyano-4-fluoro-phenyl)-4-[[(1R)-2,2-difluoro-1-methyl-propyl]-sulfamoyl]-1-methyl-pyrrole-2-carboxamide]",20 nM,50 nM,23.7 µM
"Cn1cc(S(=O)(=O)NC2(C(F)(F)F)CCC2)cc1C(=O)Nc1ccc(F)c(C#N)c1 [Compound 241, N-(3-Cyano-4-fluorophenyl)-1-methyl-4-{[1-(trifluoromethyl)cyclo-butyl]sulfamoyl}-1H-pyrrole-2-carboxamide]",10 nM,10 nM,> 25 µM
"CC(CC(F)(F)F)NS(=O)(=O)c1cc(C(=O)Nc2cc(F)c(F)c(Cl)c2)n(C)c1 (racemic) [Compound 169, N-(3-Chloro-4,5-difluorophenyl)-1-methyl-4-[(3,3,3-trifluoro-1-methylpropyl)sulfamoyl]-1H-pyrrole-2-carboxamide]",120 nM,70 nM,11.2 µM
"Cn1cc(S(=O)(=O)NC(C)(C)C)cc1C(=O)Nc1cccc(Cl)c1F [Compound 193, 4-(tert-Butylsulfamoyl)-N-(3-chloro-2-fluorophenyl)-1-methyl-1H-pyrrole-2-carboxamide]",140 nM,110 nM,> 25 µM
"CC(C)NS(=O)(=O)c1cc(C(=O)Nc2ccc(F)c(Cl)c2)n(C)c1 [Compound 174, N-(3-Chloro-4-fluorophenyl)-1-methyl-4-[(1-methylethyl)sulfamoyl]-1H-pyrrole-2-carboxamide]",80 nM,40 nM,> 25 µM
"CC(C)NS(=O)(=O)c1cc(C(=O)Nc2ccc(F)c(C(F)(F)F)c2)n(C)c1 [Compound 44, N-[4-fluoro-3-(trifluoromethyl)phenyl]-4-(isopropylsulfamoyl)-1-methyl-pyrrole-2-carboxamide]",370 nM,260 nM,> 25 µM
"C[C@@H](NS(=O)(=O)c1cc(C(=O)Nc2c(F)ccc(Cl)c2F)n(C)c1)C(F)(F)F [Compound 204, N-(3-Chloro-2,6-difluorophenyl)-1-methyl-4-{[(1R)-2,2,2-trifluoro-1-methylethyl]sulfamoyl}-1H-pyrrole-2-carboxamide]",650 nM,620 nM,> 25 µM
"Cc1c(F)ccc(NC(=O)c2cc(S(=O)(=O)NC(C)C)cn2C)c1F [Compound 99, N-(2,4-Difluoro-3-methylphenyl)-1-methyl-4-[(1-methylethyl)sulfamoyl]-1H-pyrrole-2-carboxamide]",130 nM,100 nM,> 25 µM
"Cc1cc(NC(=O)c2cc(S(=O)(=O)NC(C)(C)C(=O)N(C)C)cn2C)ccc1F [Compound 63, 4-[[2-(dimethylamino)-1,1-dimethyl-2-oxo-ethyl]sulfamoyl]-N-(4-fluoro-3-methyl-phenyl)-1-methyl-pyrrole-2-carboxamide]",60 nM,40 nM,> 25 µM
"CC[C@@H](C)NS(=O)(=O)c1cc(C(=O)Nc2cc(F)c(F)c(Br)c2)n(C)c1 [Compound 47, N-(3-bromo-4,5-difluoro-phenyl)-1-methyl-4-[[(1R)-1-methylpropyl]-sulfamoyl]pyrrole-2-carboxamide]",100 nM,100 nM,> 25 µM
"Cc1c(F)ccc(NC(=O)c2c(Cl)c(S(=O)(=O)N[C@H](C)C(F)(F)F)cn2C)c1C#N [Compound 272, 3-chloro-N-(2-cyano-4-fluoro-3-methyl-phenyl)-1-methyl-4-[[(1R)-2,2,2-trifluoro-1-methyl-ethyl]sulfamoyl]pyrrole-2-carboxamide]",300 nM,760 nM,> 25 µM
"CCn1cc(S(=O)(=O)NC(C)C)cc1C(=O)Nc1ccc(F)c(C)c1 [Compound 29, 1-ethyl-N-(4-fluoro-3-methyl-phenyl)-4-(isopropylsulfamoyl)pyrrole-2-carboxamide]",150 nM,210 nM,> 25 µM
"CCC(CC)(NS(=O)(=O)c1cc(C(=O)Nc2ccc(F)c(C#N)c2)n(C)c1)C(F)(F)F [Compound 248, N-(3-cyano-4-fluoro-phenyl)-4-{[1-ethyl-1-(trifluoromethyl)propyl]sulfamoyl}-1-methyl-1H-pyrrole-2-carboxamide]",30 nM,70 nM,> 25 µM
"CC[C@H](NS(=O)(=O)c1cc(C(=O)Nc2ccc(F)c(C#N)c2)n(C)c1)C(F)(F)F [Compound 239, N-(3-Cyano-4-fluorophenyl)-1-methyl-4-{[(1S)-1-(trifluoromethyl)-propyl]sulfamoyl}-1H-pyrrole-2-carboxamide]",20 nM,10 nM,> 25 µM
"C[C@@H](NS(=O)(=O)c1cn(C2CC2)c(C(=O)Nc2ccc(F)c(C#N)c2)c1Cl)C(F)(F)F [Compound 305, 3-chloro-N-(3-cyano-4-fluoro-phenyl)-1-cyclopropyl-4-[[(1R)-2,2,2-trifluoro-1-methyl-ethyl]sulfamoyl]pyrrole-2-carboxamide]",170 nM,350 nM,> 25 µM

# — US9884818B2, “Sulphamoylpyrrolamide derivatives and the use thereof as medicaments for the treatment of hepatitis B” (Janssen Sciences Ireland UC, priority 2013, dated 2018)
